Laboratory results as given in PMC12068666, “Synthesis of thiazole-integrated pyrrolotriazinones: evaluations of cytotoxicity and effects on PI3K levels in cancer cells” (Turkish Journal of Chemistry, 2025).

What was measured:
A549 cells = experiment: MTT assay, antiproliferative activity, A549; assay type: cell-based, human; settings: for IC50: Homo sapiens, A549, MTT, 24 h treatment, mean ± SD; for Selectivity Index (SI) A549: IC50 of healthy cells (NIH/3T3)/IC50 of cancer cells
Protocol: (§1) MCF-7 (human ER + breast cancer, HTB-22, USA), A549 (human nonsmall cell lung cancer, ATTC CRM-CCL-185, USA), HepG2 (human liver cancer, ATTC HB-8065, USA), and NIH/3T3 (mouse embryonic fibroblast, ATCC, CRL-1658, USA) cells were maintained in DMEM supplemented with 10% fetal bovine serum and 1% penicillin/streptomycin. The cells were maintained under appropriate conditions (37 °C, 5% CO2).
(§2) The antiproliferative activity of the newly synthesized compounds was measured using the MTT assay as described in a previous study. Briefly, cells were seeded at a density of 6 × 10^3 cells/well and incubated for 24 h in a 37 °C humidified incubator with 5% CO2. Afterwards, the cells were treated with increasing concentrations (1, 2.5, 5, 10, 25, 50, 75, and 100 μM) of compounds and incubated for another 24 h. Moreover, some cells were incubated with doxorubicin (1, 5, 10, 25, and 50 μM) for comparison, while other cells treated only with 1% DMSO was used as the solvent control. After incubation, 20 μL of MTT solution (5 mg/mL in PBS) was added to each well, and the plate was incubated for 4 h under the same conditions. Following this period, the medium was discarded and replaced with DMSO. The absorbance of dissolved formazan crystals was measured using a multiplate reader. The IC50 value and the selectivity index of each compound were calculated as previously described.
(§3) The antiproliferative effect of all newly synthesized thiazole-integrated pyrrolotriazinone derivatives were assessed against cancer cell lines (MCF-7, A549, and HepG2) as well as a healthy cell line (NIH/3T3) using the MTT assay. The IC50 values were determined through the nonlinear regression algorithm for log (inhibitor) versus normalized response-variable slope, as implemented in GraphPad [Y = 100/(1 + 10^X−LogIC50), where X represents the logarithm of the inhibitor concentration and Y denotes the response]. Additionally, Selectivity Indices (SI: IC50 of healthy cells/IC50 of cancer cells) were calculated.

MCF-7 cells = experiment: MTT assay, antiproliferative activity, MCF-7; assay type: cell-based, human; settings: for IC50: Homo sapiens, MCF7, MTT, 24 h treatment, mean ± SD; for Selectivity Index (SI) MCF-7: IC50 of healthy cells (NIH/3T3)/IC50 of cancer cells
Protocol: as §1, §2, §3

NIH/3T3 cells = experiment: MTT assay, healthy cell line NIH/3T3; assay type: cell-based; settings: Mus musculus, NIH3T3, 24 h treatment, mean ± SD
Protocol: as §1, §2, §3

HepG2 cells = experiment: MTT assay, antiproliferative activity, HepG2; assay type: cell-based, human; settings: for IC50: Homo sapiens, HepG2, MTT, 24 h treatment, mean ± SD; for Selectivity Index (SI) HepG2: IC50 of healthy cells (NIH/3T3)/IC50 of cancer cells
Protocol: as §1, §2, §3

SMILES | IC50 (A549 cells) | IC50 (MCF-7 cells) | IC50 (HepG2 cells) | Selectivity Index (SI) A549 (A549 cells) | Selectivity Index (SI) MCF-7 (MCF-7 cells) | IC50 (NIH/3T3 cells) | Selectivity Index (SI) HepG2 (HepG2 cells)
Cc1csc(-n2ncc3cccn3c2=O)n1 [Compound 13, 3-(4-methylthiazol-2-yl)pyrrolo[1,2-d][1,2,4]triazin-4(3H)-one] | > 100 µM | > 100 µM | > 100 µM | 0.94 | 1.01 | > 100 µM | 1.32
O=c1n(-c2nc(-c3ccco3)cs2)ncc2cccn12 [Compound 31, 3-(4-(furan-2-yl)thiazol-2-yl)pyrrolo[1,2-d][1,2,4]triazin-4(3H)-one] | > 100 µM | 91.2 ± 1.06 µM | > 100 µM | 1.67 | 1.91 | > 100 µM | 1.69
O=c1n(-c2nc(-c3ccc(F)c(F)c3)cs2)ncc2cccn12 [Compound 24, 3-(4-(3,4-difluorophenyl)thiazol-2-yl)pyrrolo[1,2-d][1,2,4]triazin-4(3H)-one] | 45.23 ± 0.41 µM | 33.2 ± 0.49 µM | 25.3 ± 1.06 µM | 3.46 | 4.72 | > 100 µM | 6.19
O=c1n(-c2nc(-c3cccs3)cs2)ncc2cccn12 [Compound 32, 3-(4-(thiophen-2-yl)thiazol-2-yl)pyrrolo[1,2-d][1,2,4]triazin-4(3H)-one] | > 100 µM | 83.71 ± 0.81 µM | > 100 µM | 1.68 | 2.43 | > 100 µM | 2.00
O=c1n(-c2nc(-c3cc4ccccc4o3)cs2)ncc2cccn12 [Compound 30, 3-(4-(benzofuran-2-yl)thiazol-2-yl)pyrrolo[1,2-d][1,2,4]triazin-4(3H)-one] | > 100 µM | > 100 µM | > 100 µM | 1.51 | 1.57 | > 100 µM | 1.90
COc1cccc2c1C(=O)c1c(O)c3c(c(O)c1C2=O)C[C@@](O)(C(=O)CO)C[C@@H]3O[C@H]1C[C@H](N)[C@H](O)[C@H](C)O1 [Dox, doxorubicin, reference compound] | 0.61 ± 0.12 µM | 1.34 ± 0.07 µM | 1.27 ± 0.24 µM | 5.83 | 2.6 | 3.56 ± 0.02 µM | 2.8
O=c1n(-c2nc(-c3ccc(-c4ccccc4)cc3)cs2)ncc2cccn12 [Compound 28, 3-(4-([1,1′-biphenyl]-4-yl)thiazol-2-yl)pyrrolo[1,2-d][1,2,4]triazin-4(3H)-one] | 78.23 ± 0.05 µM | 63.17 ± 0.35 µM | 44.8 ± 1.06 µM | 2.25 | 2.79 | > 100 µM | 3.93

The next lines start with results.

IC50 (A549 cells) | IC50 (MCF-7 cells) | IC50 (HepG2 cells) | SMILES | Selectivity Index (SI) A549 (A549 cells) | Selectivity Index (SI) MCF-7 (MCF-7 cells) | IC50 (NIH/3T3 cells) | Selectivity Index (SI) HepG2 (HepG2 cells)
> 100 µM | > 100 µM | > 100 µM | O=c1n(-c2nc(-c3ccc(O)cc3)cs2)ncc2cccn12 [Compound 16, 3-(4-(4-hydroxyphenyl)thiazol-2-yl)pyrrolo[1,2-d][1,2,4]triazin-4(3H)-one] | 1.32 | 1.10 | > 100 µM | 1.02
> 100 µM | 79.19 ± 0.61 µM | > 100 µM | O=c1n(-c2nc(-c3ccc([N+](=O)[O-])cc3)cs2)ncc2cccn12 [Compound 18, 3-(4-(4-nitrophenyl)thiazol-2-yl)pyrrolo[1,2-d][1,2,4]triazin-4(3H)-one] | 1.51 | 2.08 | > 100 µM | 1.60
71.2 ± 0.74 µM | 55.6 ± 1.05 µM | 51.85 ± 0.23 µM | O=c1n(-c2nc(-c3ccc(Br)cc3)cs2)ncc2cccn12 [Compound 22, 3-(4-(4-bromophenyl)thiazol-2-yl)pyrrolo[1,2-d][1,2,4]triazin-4(3H)-one] | 1.31 | 1.68 | 93.46 ± 0.74 µM | 1.80
> 100 µM | > 100 µM | > 100 µM | O=c1n(-c2nc(-c3ccccc3)cs2)ncc2cccn12 [Compound 14, 3-(4-phenylthiazol-2-yl)pyrrolo[1,2-d][1,2,4]triazin-4(3H)-one] | 1.25 | 0.96 | > 100 µM | 1.04
> 100 µM | > 100 µM | > 100 µM | O=c1n(-c2nc(-c3ccc4ccccc4c3)cs2)ncc2cccn12 [Compound 29, 3-(4-(naphthalen-2-yl)thiazol-2-yl)pyrrolo[1,2-d][1,2,4]triazin-4(3H)-one] | 1.19 | 1.03 | > 100 µM | 1.26
79.5 ± 1.13 µM | 61.8 ± 1.42 µM | 52.8 ± 0.79 µM | O=c1n(-c2nc(-c3ccc(C(F)(F)F)cc3)cs2)ncc2cccn12 [Compound 19, 3-(4-(4-(trifluoromethyl)phenyl)thiazol-2-yl)pyrrolo[1,2-d][1,2,4]triazin-4(3H)-one] | 1.87 | 2.41 | > 100 µM | 2.82
44.5 ± 0.51 µM | 39.8 ± 0.54 µM | 69.7 ± 1.26 µM | O=c1n(-c2nc(-c3ccc(F)cc3)cs2)ncc2cccn12 [Compound 20, 3-(4-(4-fluorophenyl)thiazol-2-yl)pyrrolo[1,2-d][1,2,4]triazin-4(3H)-one] | 4.41 | 4.93 | > 100 µM | 2.81
> 100 µM | > 100 µM | > 100 µM | COc1ccc(-c2csc(-n3ncc4cccn4c3=O)n2)cc1 [Compound 17, 3-(4-(4-methoxyphenyl)thiazol-2-yl)pyrrolo[1,2-d][1,2,4]triazin-4(3H)-one] | 1.44 | 1.34 | > 100 µM | 1.22
43.3 ± 1.09 µM | 15.2 ± 0.183 µM | 17.2 ± 0.81 µM | COc1ccc(-c2csc(-n3ncc4cccn4c3=O)n2)cc1OC [Compound 23, 3-(4-(3,4-dimethoxyphenyl)thiazol-2-yl)pyrrolo[1,2-d][1,2,4]triazin-4(3H)-one] | – | 5.49 | 83.44 ± 0.15 µM | 4.85
> 100 µM | > 100 µM | > 100 µM | Cc1ccc(-c2csc(-n3ncc4cccn4c3=O)n2)cc1 [Compound 15, 3-(4-(p-tolyl)thiazol-2-yl)pyrrolo[1,2-d][1,2,4]triazin-4(3H)-one] | 0.84 | 1.01 | > 100 µM | 0.85
